Data: patent US20240270758A1, “PYRIDINO-OR PYRIMIDO-CYCLIC COMPOUND, PREPARATION METHOD THEREFOR AND MEDICAL USE THEREOF” (Genfleet Therapeutics (Shanghai) Inc., priority 2021, published 2024)

Legend:
Type in all cases: cell-based, human
[1] = tested on: p-ERK in AGS cells (KRAS^G12D mutation); assay: Cell p-ERK detection assay; settings: 3 h incubation, HTRF
Procedure: AGS was purchased from ATCC; Cat. NO.: CRL-1739; F12K was purchased from Gibco; Cat. NO.: 21127-022; FBS was purchased from Gibco; Cat. NO.: 10099-141C; Trypsin (containing EDTA) was purchased from Gibco; Cat. NO.: 25200-072; DMSO was purchased from VWRAMRESCO; Cat. NO.: 0231-500ML; 96-well cell culture plate was purchased from Corning; Cat. NO.: 3599; An white background opaque 96-well plate was purchased from Cisbio; Cat. NO.: 66PL96025; Advance ERK phospho-T202/Y204 kit was purchased from Cisbio; Cat. NO.: 64AERPEH; Cell Counters were purchased from CHEMOMETEC; Model NO.: NC-200; microplate reader was purchased from PerkinElmer; Model NO.: Envison.
AGS is an endogenous human gastric adenocarcinoma cell line containing KRAS^G12D mutation, cultured in F12K+10% FBS medium. On the first day of the experiment, cells in the logarithmic growth phase were taken, digested with trypsin (containing EDTA), collected, and counted, and approximately 20,000 cells/well were inoculated in 96-well cell culture plates and cultured overnight in a 5% CO2 incubator. A 1000×3.16-fold gradient concentration stock of the compound was prepared using DMSO, diluted 200-fold into a 5× compound stock using the medium described above, and a 5× compound stock was added to each cell culture well the day after cell inoculating at a final concentration of 1× and a DMSO content of 0.1%. DMSO was used as an experimental control. After the compound was added and the incubation was continued for 3 h, the medium in the culture wells was removed, […] of cell lysis solution (from Advance ERK phospho-T202/Y204 kit, the same below) was added to each well, mixed well and incubated for 30 min, then […] of the mixed solution was transferred to a white background opaque 96-well plate, and another well was taken as a blank well with adding […] of cell lysis solution. After the transfer, […] of p-ERK HTRF antibody mixed solution (from Advance ERK phospho-T202/Y204 kit) was added to each well, after incubation for 4 h, HTRF fluorescence value (RLU) was read by a microplate reader, and p-ERK level inhibition ratio of the compound was calculated IR (%)=(RLU control-RLU compound)/(RLU control-RLU blank)×100%, compound concentration and corresponding cell p-ERK level inhibition ratio were fitted using Prism 8 four-parameter method, and IC50 value was calculated.

[2] = tested on: AGS cells (KRAS^G12D mutation); assay: Cell proliferation inhibition assay (3D, CellTiter-Glo), AGS; settings: 3D cell model, 5 days
Text: (§1) AsPC-1 was purchased from ATCC; Cat. NO.: CRL-1682; AGS was purchased from ATCC; Cat. NO.: CRL-1739; RPMI1640 was purchased from Gibco; Cat. NO.: 11875-093 2235123; F12K was purchased from Gibco; Cat. NO.: 21127-022; FBS was purchased from Gibco; Cat. NO.: 10099-141C; Trypsin (containing EDTA) was purchased from Gibco; Cat. NO.: 25200-072; CellTiter Glo-3D was purchased from Progema; Cat. NO.: G9683; 384-well sphere plates were purchased from coming; Cat. NO.: 3830; White background opaque 384-well plates were purchased from coming; Cat. NO.: 3570; Cell Counters were purchased from CHEMOMETEC; Model NO.: NC-200; microplate reader was purchased from PerkinElmer; Model NO.: Envison;
(§2) AsPC-1 is an endogenous human pancreatic cancer cell containing KRAS^G12D mutation, which is cultured in RPMI-1640 medium containing 10% FBS; AGS human gastric cancer cell line containing KRAS^G12D mutation, cultured in F-12K medium containing 10% FBS. Cells in the logarithmic growth phase were taken, digested with trypsin (containing EDTA), harvested and counted, and inoculated with 800 AsPC-1 cells/well or 400 AGS cells/well, respectively, in 384-well sphere plates and cultured overnight at 5% C02 to establish a 3D cell model. A 3.16-fold gradient concentration stock solution of 1000× compound was prepared using DMSO, diluted 100-fold into a 10× compound stock solution using media, and a 10× compound stock solution was added to each cell culture well the day after cell inoculating at a final concentration of 1× with a DMSO content of 0.1%. DMSO was used as an experimental control (control) and culture medium as a blank control (blank). After the addition of compounds, the cells were cultured for 5 days. […] CellTiter-Glo working solution was added to each well, mixed well, and incubated for 30 min. After standing for 30 min at room temperature, 40 μl of the mixed solution was transferred to a white background opaque 384-well plate. Luminescence chemiluminescence value was read on a microplate reader, and the cell proliferation inhibition ratio was calculated, IR (%)=(RLU control-RLU compound)/(RLU control-RLU blank)×100%. XLFit four-parameter method was used to fit the gradient dilution concentration of compounds and the corresponding cell proliferation inhibition ratio, and the IC50 value was calculated. […] Results for exemplary of the example compounds are shown in Table 3 below. - indicates not detected.

[3] = tested on: AsPC-1 cells (KRAS^G12D mutation); assay: Cell proliferation inhibition assay (3D, CellTiter-Glo), AsPC-1; settings: 3D cell model, 5 days
Text: as §1, §2

IC50 [1] [nM]	Compound	IC50 ([1]; Homo sapiens, AGS, 3 h) [nM]	also measured
–	C#Cc1cccc2cc(O)cc(-c3ncc4c(N5C[C@@H]6CC[C@@H](N6)[C@H]5C)nc(OCC56CC(C)CN5CC(C)C6)nc4c3F)c12 (stereo partly drawn) [Example Z207, 4-(2-((2,6-dimethyltetrahydro-1H-pyrrolizin-7a(5H)-yl)methoxy)-8-fluoro-4-((1R, 2R, 5S)-2-methyl-3,8-diazabicyclo[3.2.1]octan-3-yl)pyrido[4,3-d]pyrimidin-7-yl)-5-ethynylnaphthalen-2-ol]	13.4	IC50 ([2]; Homo sapiens, AGS, 120 h): 32 nM; IC50 ([3]; Homo sapiens, ASPC1, 120 h): 91.1 nM
2.9	C#Cc1cccc2cc(O)cc(-c3ccc4c(N5CC6CCC(C5)N6)nc(OCC56CCCN5CC(=C)C6)nc4c3F)c12 [Example Z99, 4-(4-(1R,5S)-3,8-diazabicyclo[3.2.1]octan-3-yl)-8-fluoro-2-((2-methylenetetrahydro-1H-pyrrolizin-7a(5H)-yl)methoxy)quinazolin-7-yl)-5-ethynylnaphthalen-2-ol]	–	IC50 [2]: 5.2 nM; IC50 [3]: 36.6 nM
206	C#Cc1cccc2cc(O)cc(-c3ncc4c(N5C[C@H]6CC[C@@H](C5)[C@H]6O)nc(OC[C@@]56CCCN5C[C@H](F)C6)nc4c3F)c12 [Example Z205-2, (1R, 5S, 8S)-3-(7-(8-ethynyl-3-hydroxynaphthalen-1-yl)-8-fluoro-2-(((2R,7aS)-2-fluorotetrahydro-1H-pyrrolizin-7a(5H)-yl)methoxy)pyrido[4,3-d]pyrimidin-4-yl)-3-azabicyclo[3.2.1]octan-8-ol]	–	–
612	C#Cc1cccc2cc(O)cc(-c3ncc4c(N5C[C@H]6CC[C@@H](C5)[C@@H]6O)nc(OC[C@@]56CCCN5C[C@H](F)C6)nc4c3F)c12 [Example Z205-1, (1R,5S,8R)-3-(7-(8-ethynyl-3-hydroxynaphthalen-1-yl)-8-fluoro-2-(((2R,7aS)-2-fluorotetrahydro-1H-pyrrolizin-7a(5H)-yl)methoxy)pyrido[4,3-d]pyrimidin-4-yl)-3-azabicyclo[3.2.1]octan-8-ol]	–	–
–	C#Cc1cccc2cc(O)cc(-c3ncc4c(N5C[C@H]6CC[C@@H](C5)N6)nc(OCC56CCCN5CCC6=C)nc4c3F)c12 (stereo partly drawn) [Example Z25, 4-(4-((1R,5S)-3,8-diazabicyclo[3.2.1]octan-3-yl)-8-fluoro-2-((1-methylenetetrahydro-1H-pyrrolizin-7a(5H)-yl)methoxy)pyrido[4,3-d]pyrimidin-7-yl)-5-ethynylnaphthalen-2-ol]	6.84	IC50 ([2]; Homo sapiens, AGS, 120 h): 24.9 nM; IC50 ([3]; Homo sapiens, ASPC1, 120 h): 70.7 nM
–	C#Cc1cccc2c(O)ccc(-c3ncc4c(N5C[C@H]6CC[C@@H](C5)N6)nc(OCC56CC(=C)CN5CC(=C)C6)nc4c3F)c12 [Example Z208, 4-(4-((1R,5S)-3,8-diazabicyclo[3.2.1]octan-3-yl)-2-((2,6-dimethylenetetrahydro-1H-pyrrolizin-7a(5H)-yl)methoxy)-8-fluoropyrido[4,3-d]pyrimidin-7-yl)-5-ethynylnaphthalen-1-ol]	9.04	–
–	C#Cc1cccc2cc(O)cc(-c3ncc4c(N5C[C@H]6CC[C@@H](C5)N6)nc(OCC56CC(=C)CN5[C@@H]5C[C@@H]5C6)nc4c3F)c12 (stereo partly drawn) [Example Z26, 4-(4-((1R,5S)-3,8-diazabicyclo[3.2.1]octan-3-yl)-8-fluoro-2-(((1aR,6aR)-4-methylenehexahydrocyclopropa[b]pyrrolizin-5a(3H)-yl)methoxy)pyrido[4,3-d]pyrimidin-7-yl)-5-ethynylnaphthalen-2-ol]	2.76	–
–	C#Cc1cccc2cccc(-c3c(Cl)cc4c(N5C[C@H]6CC[C@@H](C5)N6)nc(OCC56CCCN5CC(=C)C6)nc4c3F)c12 (stereo partly drawn) [Example Z193, 4-((1R,5S)-3,8-diazabicyclo[3.2.1]octan-3-yl)-6-chloro-7-(8-ethynylnaphthalen-1-yl)-8-fluoro-2-((2-methylenetetrahydro-1H-pyrrolizin-7a(5H)-yl)methoxy)quinazoline]	623	–
–	C#Cc1c(Cl)ccc2cccc(-c3ncc4c(N5C[C@H]6CC[C@@H](C5)N6)nc(OCC56CC(=C)CN5CC(=C)C6)nc4c3F)c12 [Example Z195, 4-((1R,5S)-3,8-diazabicyclo[3.2.1]octan-3-yl)-7-(7-chloro-8-ethynylnaphthalen-1-yl)-2-((2,6-dimethylenetetrahydro-1H-pyrrolizin-7a(5H)-yl)methoxy)-8-fluoropyrido[4,3-d]pyrimidine]	162	–
93.5	C#Cc1cccc2cc(O)cc(-c3ncc4c(N5CC6CCC(C6)C5)nc(OC[C@@]56CCCN5C[C@H](F)C6)nc4c3F)c12 [Example Z192, 4-(4-((1R,5S)-3-azabicyclo[3.2.1]octan-3-yl)-8-fluoro-2-(((2R,7aS)-2-fluorotetrahydro-1H-pyrrolin-7a(5H)-yl)methoxy)pyrido[4,3-d]pyrimidin-7-yl)-5-ethynylnaphthalen-2-ol]	–	–
464	C#Cc1cccc2c(N)ccc(-c3ncc4c(N5CC6CCC(C5)N6)nc(OCC56CC(=C)CN5CC(=C)C6)nc4c3F)c12 [Example Z209]	–	–
–	C#Cc1cccc2c(F)c(O)cc(-c3ncc4c(N5CC6CCC(C5)N6)nc(OCC56CC(=C)CN5CC(=C)C6)nc4c3F)c12 [Example Z203, 4-(4-(3,8-diazabicyclo[3.2.1]octan-3-yl)-2-((2,6-dimethylenetetrahydro-1H-pyrrolizin-7a(5H)-yl)methoxy)-8-fluoropyrido[4,3-d]pyrimidin-7-yl)-5-ethynyl-1-fluoronaphthalen-2-ol]	25.6	–
89.7	C#Cc1cc(F)cc2cccc(-c3ncc4c(N5CC6CCC(C5)N6)nc(OCC56CC(=C)CN5CC(=C)C6)nc4c3F)c12 [Example Z198]	–	–
–	C#Cc1cccc2cc(O)cc(-c3cc4nc(OCC56CCCN5CC(=C)C6)nc(N5CC6CCC(C5)N6)c4cn3)c12 (stereo not drawn) [Example Z191, 4-(4-(3,8-diazabicyclo[3.2.1]octan-3-yl)-2-((2-methylenetetrahydro-1H-pyrrolizin-7a(5H)-yl)methoxy)pyrido[4,3-d]pyrimidin-7-yl)-5-ethynylnaphthalen-2-ol]	612	–
–	C#Cc1cccc2nc(N)cc(-c3ncc4c(N5CC6CCC(C5)N6)nc(OCC56CC(=C)CN5CC(=C)C6)nc4c3F)c12 [Example Z201, 4-(4-(3,8-diazabicyclo[3.2.1]octan-3-yl)-2-((2,6-dimethylenetetrahydro-1H-pyrrolizin-7a(5H)-yl)methoxy)-8-fluoropyrido[4,3-d]pyrimidin-7-yl)-5-ethynylquinolin-2-amine]	238	–

Compound	IC50 [1] [nM]	IC50 ([1]; Homo sapiens, AGS, 3 h) [nM]	also measured
C#Cc1cccc2cc(N)cc(-c3ncc4c(N5C[C@H]6CC[C@@H](C5)N6)nc(OCC56CC(=C)CN5CC(=C)C6)nc4c3F)c12 [Example Z214, 4-(4-((1R,5S)-3,8-diazabicyclo[3.2.1]octan-3-yl)-2-((2,6-dimethylenetetrahydro-1H-pyrrolizin-7a(5H)-yl)methoxy)-8-fluoropyrido[4,3-d]pyrimidin-7-yl)-5-ethynylnaphthalen-2-amine]	105	–	IC50 [2]: 106 nM; IC50 [3]: 611 nM
